Results reported in patent US8354246B2, “Non-MCCJ25-related lariat-peptide inhibitors of bacterial RNA polymerase” (priority 2006, dated 2013).
pIC50: −log10 of the molar value. Bridge positions count the residues as written; N and C are the ends. Peptide text beside a SMILES is read from it.

Experiments:
[1] = target: T1, Escherichia coli σ^70 RNAP holoenzyme (Escherichia coli, UniProt P0A8T7); experiment: fluorescence-detected abortive initiation assay; type: biochemical; conditions: lacUV5-12 DNA fragment, 37° C.
T1 construct: purchased Epicentre, Inc
Procedure: (§1) Following incubation of reaction mixtures for 5 min at 22° C., 1 μl 1.1 μM DNA fragment lacUV5-12 (Mukhopadhyay et al. (2001) Cell 106, 453-463) was added. Following further incubation of reaction mixtures for […] at 37° C., 0.5 μl 1 mg/ml heparin (Sigma, Inc.; omitted in experiments with T. thermophilus RNAP) and 0.5 μl of 2.75 mM (γ-AmNS)UTP (Molecular Probes, Inc.) were added, and reaction mixtures were transferred to sub-micro fluorometer cuvettes (Starna Cells, Inc.). Following further incubation of reaction mixtures for 2 min at 37° C., RNA synthesis was initiated by addition of 2 μl 11 mM ApA (Sigma, Inc.), and fluorescence emission intensity was monitored for 5 min at 37° C. [excitation wavelength=360 nm and emission wavelength=500 nm; excitation and emission slit widths=4 nm; QuantaMaster QM1 spectrofluorometer (PTI, Inc.)]. The quantity of UMP incorporated into RNA was determined from the quantity of (γ-AmNS) UTP consumed, which, in turn, was calculated as follows (Schlageck et al. 1979): (γ-AmNS)UTPconsumed=[(γ-AmNS)UTP0](Ft−F0)/(12.4×F0) where (γ-AmNS)UTP0 is the quantity of (γ-AmNS)UTP at time 0, F0 is the fluorescence emission intensity at time 0, and Ft is the fluorescence emission intensity at time t.

[2] = target: T2, Thermus thermophilus σ^A RNAP holoenzyme (Thermus thermophilus, UniProt Q8RQE8); experiment: fluorescence-detected abortive initiation assay; type: biochemical; conditions: lacUV5-12 DNA fragment, 37° C.
T2 construct: made in house
Procedure: as §1

[3] = tested on: Gram-positive bacterial RNAP; conditions: Yuzenkova, et al. (2002); cited from earlier work
[4] = tested thermal and chemical denaturants; cited from earlier work
[5] = tested on: Thermus-Deinoccoccus bacterial RNAP; conditions: Yuzenkova, et al. (2002); cited from earlier work
[6] = tested on: mesophilic endo- and exopeptidease; conditions: tested mesophilic endo- and exopeptidases; cited from earlier work

| Compound | pIC50 [1] | pIC50 [2] | inhibition of Gram-positive bacterial RNAP [3] | resistance to denaturation [4] | inhibition of Thermus-Deinoccoccus bacterial RNAP [5] | resistance to proteolysis [6] |
| --- | --- | --- | --- | --- | --- | --- |
| C[C@@H](O)[C@@H]1NC(=O)CNC(=O)[C@H](Cc2c[nH]cn2)NC(=O)[C@H](Cc2c[nH]c3ccccc23)NC(=O)[C@H](CC(N)=O)NC(=O)CNC(=O)C[C@@H](C(=O)N[C@@H](Cc2c[nH]c3ccccc23)C(=O)N[C@@H](Cc2ccccc2)C(=O)N[C@@H](Cc2ccccc2)C(=O)N[C@@H](CC(N)=O)C(=O)N[C@@H](Cc2ccc(O)cc2)C(=O)N[C@@H](Cc2ccc(O)cc2)C(=O)N[C@@H](Cc2c[nH]c3ccccc23)C(=O)O)NC(=O)[C@@H]2CCCN2C(=O)[C@H](CO)NC1=O [RES-701-3] (GNWHGTSPDWFFNYYW-OH; lactam N-9; C-terminus assumed) | 4.70 | 5.70 | – | – | – | – |
| CC[C@H](C)[C@H](NC(=O)[C@H](Cc1ccccc1)NC(=O)[C@@H](NC(=O)[C@H](Cc1cnc[nH]1)NC(=O)CNC(=O)CNC(=O)[C@H](Cc1ccccc1)NC(=O)[C@H](CC(C)C)NC(=O)[C@@H]1CC(=O)NCC(=O)N[C@@H](Cc2ccc(O)cc2)C(=O)N2CCC[C@H]2C(=O)N[C@@H](Cc2c[nH]c3ccccc23)C(=O)N[C@@H](Cc2c[nH]c3ccccc23)C(=O)N[C@@H](CC(=O)O)C(=O)N[C@@H](Cc2ccc(O)cc2)C(=O)N[C@@H](CCCNC(=N)N)C(=O)N1)[C@@H](C)O)C(=O)N[C@@H](CO)C(=O)N1CCC[C@H]1C(=O)O [propeptin] (GYPWWDYRDLFGGHTFISP-OH; lactam N-9) | 4.52 | 5.30 | – | – | – | – |
| Gly1-Gly2-Ala3-Gly4-His5-Pro6-Val7-Glu8-Tyr9-Phe10-Val11-Gly12-Ile13-Gly14-Thr15-Pro16-Ile17-Ser18-Phe19-Tyr20-Gly21 cyclic(8→1) peptide [MccJ25] | – | – | does not inhibit | complete resistance to tested thermal and chemical denaturants | does not inhibit | complete resistance to tested mesophilic endo- and exopeptidease |
